The subject of this experiment is Human umbilical vein endothelial cells. The experiment is described as follows: Cellular uptake of B-4F in endothelial cells. The format is cell-based. Conditions: B-4F 10 and 50 µg/ml; vs unlabeled 4F; 4 hours (method), 3 hours (Figure 6); confocal. As to the method:
Human umbilical vein endothelial cells (EC; Lonza, Walkersville, MD) were incubated in EGM complete media containing 4F or B-4F (10 and 50 µg/ml) for 4 hours. The EC cultures were washed with PBS, fixed in PBS containing 1% paraformaldehyde, and permeabilized with PBS containing 0.5% Triton-X. The permeabilized sections were incubated with fluorescein-conjugated streptavidin (1 µg/ml) for 30 minutes followed by 3 PBS washes. The fixed and fluorescently labeled slides were mounted in aqueous mounting media and sections inspected and analyzed by confocal microscopy.

The text below walks through data of paper PMC3522636, “4F Decreases IRF5 Expression and Activation in Hearts of Tight Skin Mice” (PLoS ONE, 2012).

For the substance Ac-DWFKAFYDKVAEKFKEAF-NH2 [4F], the “uptake into EC (in words)” value is listed as “enters EC in a concentration-dependent fashion”.
